Measured values reported in article PMC6478789, “A chemical toolbox for the study of bromodomains and epigenetic signaling” (Nature Communications, 2019).
Read-outs that look alike come from different tables or passages of the source.

Columns and labels:
[1] = biological target: FXR1 (Homo sapiens, UniProt P51114); assay: Temperature shift assay (non-BRD reader domains); assay type: binding; conditions: 10µM compound
Experimental: (§1) Temperature shift assays have been described by Fedorov et al.[46]. Recombinant protein domains (bromodomain or kinases) at a concentration of 2 μM in 10 mM HEPES, pH 7.5, and 500 mM NaCl were mixed with 10 μM of chemical probes. Temperature-dependent protein unfolding profiles were measured using a Real-Time PCR Mx3005p machine (Stratagene).
(§2) Wu et al., Supplementary figures and tables 14
(§3) Supplementary Table 3: Selectivity screening data (non-BRD reader domains):
(§4) Temperature shift assay data of BRD probes screened against a diver se panel of methyl-lysine
(§5) reader domains. Compounds were screened a concentration of 10 µM. Shown are temperature

[2] = biological target: TDRD3 (Homo sapiens, UniProt Q9H7E2); assay: Temperature shift assay (non-BRD reader domains); assay type: binding; conditions: 10µM compound
TDRD3, sequence (Q9H7E2 555-615 limits assumed, species assumed): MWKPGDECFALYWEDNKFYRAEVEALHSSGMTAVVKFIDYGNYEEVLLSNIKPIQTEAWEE
Experimental: as §1, §2, §3, §4, §5

[3] = biological target: T1, SND1 (Homo sapiens, UniProt Q7KZF4); assay: Temperature shift assay (non-BRD reader domains); assay type: binding; conditions: 10µM compound
T1 sequence (Q7KZF4 729-787 limits assumed): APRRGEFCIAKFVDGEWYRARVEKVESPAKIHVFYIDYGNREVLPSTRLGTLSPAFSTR
Experimental: as §1, §2, §3, §4, §5

[4] = system: RBBP1; assay: Temperature shift assay (non-BRD reader domains); assay type: binding; conditions: 10µM compound
Experimental: as §1, §2, §3, §4, §5

[5] = biological target: T2, UHRF1 (Homo sapiens, UniProt Q96T88); assay: Temperature shift assay (non-BRD reader domains); assay type: binding; conditions: 10µM compound
T2 sequence (Q96T88 126-285 limits assumed): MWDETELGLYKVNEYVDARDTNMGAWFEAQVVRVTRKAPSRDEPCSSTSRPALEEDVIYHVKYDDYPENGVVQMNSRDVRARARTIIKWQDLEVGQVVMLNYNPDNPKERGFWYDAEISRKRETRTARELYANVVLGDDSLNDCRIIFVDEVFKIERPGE
Experimental: as §1, §2, §3, §4, §5

[6] = biological target: EED (Homo sapiens, UniProt O75530); assay: Temperature shift assay (non-BRD reader domains); assay type: binding; conditions: 10µM compound
EED, sequence (O75530 whole entry, species assumed, the tested form may be a part): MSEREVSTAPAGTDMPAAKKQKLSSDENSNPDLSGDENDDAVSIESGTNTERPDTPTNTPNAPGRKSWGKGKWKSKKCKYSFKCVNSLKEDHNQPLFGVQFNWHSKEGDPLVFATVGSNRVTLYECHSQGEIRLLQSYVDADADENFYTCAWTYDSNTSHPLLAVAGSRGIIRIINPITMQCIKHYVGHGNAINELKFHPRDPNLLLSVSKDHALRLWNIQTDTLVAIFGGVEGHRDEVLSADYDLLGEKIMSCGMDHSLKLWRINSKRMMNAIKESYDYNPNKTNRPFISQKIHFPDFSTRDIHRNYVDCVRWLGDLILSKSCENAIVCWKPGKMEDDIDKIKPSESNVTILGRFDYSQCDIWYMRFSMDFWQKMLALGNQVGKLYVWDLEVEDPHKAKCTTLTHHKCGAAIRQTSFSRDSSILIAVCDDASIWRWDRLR
Experimental: as §1, §2, §3, §4, §5

[7] = biological target: WDR5 (Homo sapiens, UniProt P61964); assay: Temperature shift assay (non-BRD reader domains); assay type: binding; conditions: 10µM compound
Experimental: as §1, §2, §3, §4, §5

[8] = biological target: 53BP1 (Homo sapiens, UniProt Q12888); assay: Temperature shift assay (non-BRD reader domains); assay type: binding; conditions: 10µM compound
53BP1, sequence (Q12888 1484-1603 limits assumed, species assumed): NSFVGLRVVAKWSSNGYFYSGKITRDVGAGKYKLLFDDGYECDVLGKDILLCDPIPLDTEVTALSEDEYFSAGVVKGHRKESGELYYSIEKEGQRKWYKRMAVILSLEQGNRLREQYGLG
Experimental: as §1, §2, §3, §4, §5

[9] = biological target: BRPF3 (Homo sapiens, UniProt Q9ULD4); assay: Temperature shift assay (non-BRD reader domains); assay type: binding; conditions: 10µM compound
BRPF3, sequence (Q9ULD4 1076-1159 limits assumed, species assumed): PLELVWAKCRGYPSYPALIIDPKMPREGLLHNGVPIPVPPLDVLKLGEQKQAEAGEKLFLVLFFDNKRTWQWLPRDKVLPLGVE
Experimental: as §1, §2, §3, §4, §5

[10] = biological target: BRD3(2) (Homo sapiens, UniProt Q15059); assay: BROMOscan ligand-binding assay
BRD3(2), sequence (Q15059 306-415 limits assumed): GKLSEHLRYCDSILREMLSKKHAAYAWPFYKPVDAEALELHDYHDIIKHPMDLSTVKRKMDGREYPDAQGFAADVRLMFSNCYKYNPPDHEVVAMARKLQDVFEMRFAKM
Source text: (§6) BROMOscan is a binding assay based on the well-known KINOMEscan technology. This assay measures the binding of a DNA-tagged bromodomain to an immobilized BRD ligand. If an inhibitor is present, it will compete with the bromodomain binding to the immobilized ligand, resulting in reduction of a quantitative PCR (qPCR) signal in a dose-dependent manner.

[11] = biological target: T3, TAF1L(2) (Homo sapiens, UniProt Q8IZX4); assay: BROMOscan ligand-binding assay
T3 sequence (Q8IZX4 1517-1626 limits assumed): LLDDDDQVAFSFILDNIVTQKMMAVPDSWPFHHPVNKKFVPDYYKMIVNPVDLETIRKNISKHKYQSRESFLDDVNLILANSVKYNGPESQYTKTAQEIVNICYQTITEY
Source text: as §6

[12] = biological target: BRD4(1) (Homo sapiens, UniProt O60885); assay: BROMOscan ligand-binding assay
Source text: as §6

[13] = biological target: T4, BRPF1 (Homo sapiens, UniProt P55201); assay: BROMOscan ligand-binding assay
T4 sequence (P55201 628-732 limits assumed): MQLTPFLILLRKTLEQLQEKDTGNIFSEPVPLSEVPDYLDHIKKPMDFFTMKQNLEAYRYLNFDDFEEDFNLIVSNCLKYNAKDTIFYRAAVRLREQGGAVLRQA
Source text: as §6

[14] = biological target: T5, TRIM24(PHD,BRD) (Homo sapiens, UniProt O15164); assay: BROMOscan ligand-binding assay
T5 sequence (O15164 824-1006 limits assumed): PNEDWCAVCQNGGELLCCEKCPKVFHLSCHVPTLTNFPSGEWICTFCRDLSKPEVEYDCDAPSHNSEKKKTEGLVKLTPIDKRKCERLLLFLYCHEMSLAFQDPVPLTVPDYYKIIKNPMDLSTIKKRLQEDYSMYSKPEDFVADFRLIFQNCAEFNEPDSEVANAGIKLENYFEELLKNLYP
Source text: as §6

[15] = biological target: SMARCA2(iso.A) (Homo sapiens, UniProt P51531); assay: BROMOscan ligand-binding assay
SMARCA2(iso.A), sequence (P51531 1378-1506 limits assumed): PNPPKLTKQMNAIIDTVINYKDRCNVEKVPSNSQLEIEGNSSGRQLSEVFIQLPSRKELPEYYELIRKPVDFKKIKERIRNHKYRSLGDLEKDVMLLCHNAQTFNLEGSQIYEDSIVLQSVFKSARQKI
Source text: as §6

[16] = biological target: SMARCA4 (Homo sapiens, UniProt P51532); assay: BROMOscan ligand-binding assay
SMARCA4, sequence (P51532 1453-1564 limits assumed): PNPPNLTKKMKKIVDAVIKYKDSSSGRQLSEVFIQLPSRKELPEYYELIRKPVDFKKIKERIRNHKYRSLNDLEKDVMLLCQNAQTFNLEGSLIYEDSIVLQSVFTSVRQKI
Source text: as §6

[17] = biological target: BRD4(fl) (Homo sapiens, UniProt O60885); assay: BROMOscan ligand-binding assay
Source text: as §6

[18] = KD (BROMOscan), sheet prints no unit (nM)

FXR1, sequence (P51114 2-132 limits assumed, species assumed): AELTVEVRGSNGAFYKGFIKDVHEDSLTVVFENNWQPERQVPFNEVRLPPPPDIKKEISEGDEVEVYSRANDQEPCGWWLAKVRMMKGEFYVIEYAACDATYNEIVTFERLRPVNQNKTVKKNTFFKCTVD

SMILES	Tm (C) 10µM, temperature shift [1] [Kelvin]	Tm (C) 10µM, temperature shift [2] [Kelvin]	Tm (C) 10µM, temperature shift [3] [Kelvin]	Tm (C) 10µM, temperature shift [4] [Kelvin]	Tm (C) 10µM, temperature shift [5] [Kelvin]	Tm (C) 10µM, temperature shift [6] [Kelvin]	Tm (C) 10µM, temperature shift [7] [Kelvin]	Tm (C) 10µM, temperature shift [8] [Kelvin]	Tm (C) 10µM, temperature shift [9] [Kelvin]	other results
Cc1c(NC(=O)c2cc(C(N)=O)nc3cc(F)ccc23)c(C(F)(F)F)nn1Cc1ccc(C(C)(C)C)cc1 [BAY-588]	-1.2	-5.3	-1.0	-0.1	-0.4	-0.5	-7.3	-2.3		
COc1cc(Cl)c(C(=O)N[C@@H](CN[C@H]2CC[C@@H](N)CC2)Cc2ccc(C#N)cc2)cc1-c1ccc(CN[C@H](C)c2ccc(C)cc2)o1 [BAY-850]	-1.7	-1.8	-1.6	-1.0	-0.3		0.2	-0.7	-0.4	
Cc1c(NC(=O)c2cc(C(N)=O)nc3cc(F)ccc23)c(C(F)(F)F)nn1Cc1ccc(C#N)cc1 [BAY-876]	0.8	-1.0	-0.9	-0.3	-0.2	-0.7	0.4	0.0	-0.3	
Cc1noc(C)c1-c1ccc2c(c1)nc(CCc1ccccc1)n2CCN1CCOCC1 [CBP30-298]										Kd ([10]; BROMOscan Gene Symbol BRD3(2)): 1.6 µM; Kd ([11]; BROMOscan Gene Symbol TAF1L(2)): 17 µM; Kd ([12]; BROMOscan Gene Symbol BRD4(1)): 0.52 µM; Kd ([13]; BROMOscan Gene Symbol BRPF1): 18 µM; Kd ([14]; BROMOscan Gene Symbol TRIM24(PHD,Bromo.)): 17 µM
CCCOc1ccn2c(C(C)=O)cc(-c3ccccc3S(C)(=O)=O)c2c1 [GSK2801]										Kd [15, 18]: > 30000 nM; Kd ([15]; KD, BROMOscan Gene Symbol SMARCA2(iso.A)): > 100000 nM; Kd ([10]; KD, BROMOscan Gene Symbol BRD3(2)): 13 µM; Kd [16, 18]: > 30000 nM; Kd ([16]; KD, BROMOscan Gene Symbol SMARCA4): > 100000 nM; Kd [11]: 5.1 µM; Kd [12]: 74 µM; Kd ([13]; KD, BROMOscan Gene Symbol BRPF1): 14 µM; Kd ([14]; KD, BROMOscan Gene Symbol TRIM24(PHD,Bromo.)): 33 µM; Kd [17]: 41 µM
CN1C[C@H](Nc2cnn(C)c(=O)c2Br)C[C@H](c2ccccc2)C1 [GSK4027]	0.3	-0.6	-1.0	-0.7	-0.2	-0.7	0.2	-0.1	-0.3	
CO[C@H]1CNC[C@@H](OCC2CCC(F)(F)CC2)[C@@H]1Nc1ncc(-c2cncc(C)c2)c2cc(C)c(=O)[nH]c12 [GSK8814]	0.4	-0.6	-0.5	-0.1	-0.2	-0.4	0.2	-0.1	-0.2	
Cc1cc(=O)n(C)c2cc(N3C(=O)CC[C@H](NS(=O)(=O)CC(C)C)[C@H]3c3ccc(Cl)cc3)ccc12 [LP-99]										Kd ([10]; BROMOscan, BRD3(2)): > 50 µM; Kd ([16]; BROMOscan, SMARCA4): > 50000 nM; Kd ([11]; BROMOscan, TAF1L(2)): > 50 µM; Kd ([12]; BROMOscan, BRD4(1)): 46 µM; Kd ([13]; BROMOscan, BRPF1): 43 µM; Kd ([14]; BROMOscan, TRIM24(PHD,Bromo.)): > 50 µM; Kd ([17]; BROMOscan, BRD4(full-length,short-iso.)): > 50 µM
